From patent US20210078958A1, “QUINAZOLINE DERIVATIVE AND USE THEREOF” (MEDSHINE DISCOVERY INC., priority 2017, published 2021)

Key:
HER2 (ErbB2) = HER2 (ErbB2) (Homo sapiens, UniProt P04626); experiment: in vitro enzyme activity, HER2 (ErbB2); type: biochemical; settings: human ErbB2, [γ-33P]ATP, poly(Glu, Tyr) substrate
Procedure, shortened: (§1)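 Radiometric filter-binding assay: human ErbB1, ErbB2 or ErbB4 (4-20 ng) with poly(Glu,Tyr) 4:1 substrate, MnCl2 and [γ-33P]ATP, 10 min at 30 °C, stopped with 3% phosphoric acid. Incorporated 33P counted by scintillation and compared with internal control CPM.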

HER4 (ErbB4) = HER4 (ErbB4) (Homo sapiens, UniProt Q15303); experiment: in vitro enzyme activity, HER4 (ErbB4); type: biochemical; settings: human ErbB4, [γ-33P]ATP, poly(Glu, Tyr) substrate
Procedure, shortened: as §1

OE19 cells = experiment: CTG assay of OE19 cells; type: cell-based; settings: Homo sapiens, 72 hours of cell culture, Cell Titer Glo
Procedure: OE19 cells with saturation of 80%-90% were digested with trypsin, centrifuged, resuspended and counted. The concentration of cells was adjusted to […]. OE19 cells were added to a 96-well cell culture plate to 8000 OE19 cells per well. The cells were cultured in a cell incubator containing 5% CO2 at 37° C. overnight.
The stock solution of the test compounds was serially 3-fold diluted with DMSO to a total of 10 concentrations. Before the start of the assay, the serially diluted test compounds were further diluted to 10× compound solutions (the compound with a highest concentration contains 1% DMSO) with cell culture medium under sterile conditions. The prepared 10× compound solutions were added to the cell culture plate, and the 10 μL compound solution was added to each well. In this way, the final concentrations of staurosporine as the standard control and all the test compounds were obtained starting from […] as the initial concentration in a 3-fold serial dilution to get 10 test concentrations.
After 72 hours of cell culture, the 96-well cell culture plate was taken out. Cell Titer Glo reagent was added at […], mixed, centrifuged, and incubated at room temperature in the dark for 10 minutes. The cell plate was placed in Envision for reading.
The inhibition rate was calculated according to original data as follows:
Inhibition %=(ZPE−sample detection value)/(ZPE−HPE)×100%
The well containing 10 mM staurosporine on DAY3 (the first day of the assay is the day when compounds were added, and DAY3 is the day when reading is perfomed) was used as the HPE (100% inhibition control) well, and the well containing 0.1% DMSO on DAY3 was used as the ZPE (0% inhibition control) well. Each concentration of test compounds was tested in duplicate.
Non-linear regression analysis was performed using the processed data and GraphPad Prism 6 analysis software to obtain a dose-response curve, and the half-inhibitory concentration (IC50) of the test compounds on OE19 cells was calculated.

CYP2C9 = biological target: T1, CYP2C9 (Homo sapiens, UniProt P11712); experiment: inhibition of CYP enzyme activity in human liver microsome, CYP2C9; type: in vitro ADME
T1 construct: in the assay of CYP enzyme activity in human liver microsome; from tissue; host or cells: human liver microsome
Description: (§2) The results of the compounds disclosed herein and the reference compound Poziotinib in the assay of CYP enzyme activity in human liver microsome were shown in the following table (Table 8).

[1] = tested on: subcutaneous xenograft tumor of human esophageal carcinoma OE21 cells; type: in vivo; settings: 2/1.5 mg/kg; for Tumor volume (mm3) (Day 21): OE21 xenograft, Mean + SEM; for T/C (%) / TGI (%): day 21
Procedure: Purpose of the assay: to evaluate the in vivo efficacy of the compounds to be tested on subcutaneous xenograft tumor of human esophageal carcinoma OE21 cells in a BALB/c nude mouse model.
Animals of the assay: female BALB/c nude mice, 6-8 weeks old, weighing 17-23 grams; supplier: shanghai sippr bk laboratory animals Ltd.
Human esophageal carcinoma OE21 cells were cultured in monolayer in vitro. The culture conditions were RPMI-1640 medium plus 10% fetal bovine serum, 100 U/mL penicillin, 100 U/mL streptomycin and 2 mM glutamine, 37° C., 5% CO2. The passaging was performed by conventional digestion with trypsin-EDTA twice a week. When the cell saturation was 80%-90%, the cells were collected, counted and inoculated.
0.1 ml […] OE21 cells (PBS) were inoculated subcutaneously on the right back of each mouse. When the average tumor volume reached 112 mm^3, administration to each group was started.
The test compound was formulated into a 0.15 mg/mL to 0.3 mg/mL clear or suspension solution in the solvents of 10% NMP+10% ethylene glycol stearate+80% water. 6.4 Tumor measurement and assay index
The assay index is to investigate whether tumor growth is inhibited, delayed or cured. Tumor diameter was measured twice a week with vernier caliper. The calculation formula of tumor volume is: V=0.5a×b^2, wherein a and b represent the long and short diameters of tumor, respectively.
The antitumor efficacy of the compounds were evaluated by TGI (%) or relative tumor proliferation rate T/C (%). TGI (%) reflects the tumor growth inhibition rate. TGI (%) is calculated as follows: TGI (%)=[(1−(average tumor volume at the end of administration for a certain treatment group−average tumor volume at the beginning of administration for this treatment group))/(average tumor volume at the end of treatment for a solvent control group−average tumor volume at the beginning of administration for this solvent control group)]×100%.
Relative tumor proliferation rate T/C (%): the calculation formula is as follows: T/C (%)=average tumor volume at the end of administration for a certain treatment group/average tumor volume at the end of treatment for the solvent control group×100%.
Statistical analysis included the mean and standard error (SEM) of tumor volume at each time point in each group. One-way ANOVA was used for comparison among three or more groups. […] SPSS 17.0 was used for all data analysis. p<0.05 is considered a significant difference.

CYP2C19 = biological target: T2, CYP2C19 (Homo sapiens, UniProt P33261); experiment: inhibition of CYP enzyme activity in human liver microsome, CYP2C19; type: in vitro ADME
T2 construct: in the assay of CYP enzyme activity in human liver microsome; from tissue; host or cells: human liver microsome
Description: as §2

CYP3A4 = biological target: T3, CYP3A4 (Homo sapiens, UniProt P08684); experiment: inhibition of CYP enzyme activity in human liver microsome, CYP3A4; type: in vitro ADME
T3 construct: in the assay of CYP enzyme activity in human liver microsome; from tissue; host or cells: human liver microsome
Description: as §2

T3 sequence (P08684 whole entry): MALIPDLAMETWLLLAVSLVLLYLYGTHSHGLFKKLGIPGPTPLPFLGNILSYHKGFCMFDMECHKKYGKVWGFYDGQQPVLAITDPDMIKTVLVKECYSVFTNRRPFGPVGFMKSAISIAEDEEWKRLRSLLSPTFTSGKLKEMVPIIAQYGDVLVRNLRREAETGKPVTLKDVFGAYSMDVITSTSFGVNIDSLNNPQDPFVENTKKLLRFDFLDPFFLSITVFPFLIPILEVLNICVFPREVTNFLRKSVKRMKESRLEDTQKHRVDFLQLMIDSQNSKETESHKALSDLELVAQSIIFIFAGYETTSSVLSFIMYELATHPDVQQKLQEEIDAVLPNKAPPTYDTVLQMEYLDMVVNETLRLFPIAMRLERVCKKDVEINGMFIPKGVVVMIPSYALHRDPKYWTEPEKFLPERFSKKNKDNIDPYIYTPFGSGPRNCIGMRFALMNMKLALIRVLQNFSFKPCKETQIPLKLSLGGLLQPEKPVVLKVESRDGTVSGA
T2 sequence (P33261 whole entry): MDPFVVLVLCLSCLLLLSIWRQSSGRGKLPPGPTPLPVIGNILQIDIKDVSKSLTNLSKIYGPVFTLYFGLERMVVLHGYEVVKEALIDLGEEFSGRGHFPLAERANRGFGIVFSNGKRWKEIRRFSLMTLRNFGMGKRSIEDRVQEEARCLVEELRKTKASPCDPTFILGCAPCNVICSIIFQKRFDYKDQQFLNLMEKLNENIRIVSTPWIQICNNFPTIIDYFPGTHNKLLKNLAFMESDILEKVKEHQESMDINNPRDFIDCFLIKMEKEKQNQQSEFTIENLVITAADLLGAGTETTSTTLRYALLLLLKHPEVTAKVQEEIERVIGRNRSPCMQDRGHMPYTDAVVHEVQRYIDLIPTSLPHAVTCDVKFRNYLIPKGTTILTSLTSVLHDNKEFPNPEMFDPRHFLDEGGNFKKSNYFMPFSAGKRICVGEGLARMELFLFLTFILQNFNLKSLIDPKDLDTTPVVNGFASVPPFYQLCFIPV
T1 sequence (P11712 whole entry): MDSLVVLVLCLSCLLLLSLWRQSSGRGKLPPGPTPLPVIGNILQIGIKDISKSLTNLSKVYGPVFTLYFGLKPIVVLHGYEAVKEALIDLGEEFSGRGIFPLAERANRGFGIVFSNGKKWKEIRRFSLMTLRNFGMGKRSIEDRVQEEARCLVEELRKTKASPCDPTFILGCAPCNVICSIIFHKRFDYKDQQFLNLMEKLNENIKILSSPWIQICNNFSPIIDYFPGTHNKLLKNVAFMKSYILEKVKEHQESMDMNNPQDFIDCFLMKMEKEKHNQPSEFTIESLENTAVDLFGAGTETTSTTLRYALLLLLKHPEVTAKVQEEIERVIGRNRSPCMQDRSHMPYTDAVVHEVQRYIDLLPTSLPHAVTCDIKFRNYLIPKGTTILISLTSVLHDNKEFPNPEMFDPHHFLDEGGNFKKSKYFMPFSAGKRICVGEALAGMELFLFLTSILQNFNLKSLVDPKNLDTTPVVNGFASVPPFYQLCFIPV
HER4 (ErbB4), sequence (Q15303 26-1308): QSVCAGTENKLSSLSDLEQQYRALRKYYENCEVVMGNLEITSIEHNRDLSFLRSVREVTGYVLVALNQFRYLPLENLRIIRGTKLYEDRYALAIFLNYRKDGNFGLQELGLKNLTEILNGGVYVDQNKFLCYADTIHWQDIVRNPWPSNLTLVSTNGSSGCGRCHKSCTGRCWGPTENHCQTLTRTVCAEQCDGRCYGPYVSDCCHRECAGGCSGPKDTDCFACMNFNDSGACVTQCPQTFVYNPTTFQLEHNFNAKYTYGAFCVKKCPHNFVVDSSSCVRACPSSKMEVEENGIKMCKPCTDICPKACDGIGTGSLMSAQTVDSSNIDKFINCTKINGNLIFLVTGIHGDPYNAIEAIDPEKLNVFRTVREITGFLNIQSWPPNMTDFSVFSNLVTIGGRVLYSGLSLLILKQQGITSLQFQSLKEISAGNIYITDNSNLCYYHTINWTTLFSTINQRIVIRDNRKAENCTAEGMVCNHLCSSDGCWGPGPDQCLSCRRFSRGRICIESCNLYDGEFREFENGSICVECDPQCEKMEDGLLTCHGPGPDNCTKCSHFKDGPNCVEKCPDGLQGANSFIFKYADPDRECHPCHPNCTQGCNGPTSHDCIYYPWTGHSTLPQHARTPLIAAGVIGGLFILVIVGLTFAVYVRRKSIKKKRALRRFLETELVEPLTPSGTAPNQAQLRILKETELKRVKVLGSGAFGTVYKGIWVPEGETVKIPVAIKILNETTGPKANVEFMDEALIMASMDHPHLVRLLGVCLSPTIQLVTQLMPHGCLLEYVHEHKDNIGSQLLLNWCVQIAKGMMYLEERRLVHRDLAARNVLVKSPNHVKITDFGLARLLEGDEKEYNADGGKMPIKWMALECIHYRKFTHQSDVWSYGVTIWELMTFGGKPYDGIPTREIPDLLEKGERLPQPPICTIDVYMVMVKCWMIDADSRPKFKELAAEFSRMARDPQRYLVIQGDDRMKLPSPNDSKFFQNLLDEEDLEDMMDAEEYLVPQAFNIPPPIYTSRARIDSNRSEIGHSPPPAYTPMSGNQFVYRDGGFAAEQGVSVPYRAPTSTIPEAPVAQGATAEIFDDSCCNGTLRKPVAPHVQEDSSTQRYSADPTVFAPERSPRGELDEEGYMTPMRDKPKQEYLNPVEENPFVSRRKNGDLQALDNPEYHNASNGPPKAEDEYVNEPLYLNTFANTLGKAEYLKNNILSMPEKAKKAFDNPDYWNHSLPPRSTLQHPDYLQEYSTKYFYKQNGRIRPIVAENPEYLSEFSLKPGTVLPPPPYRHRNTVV
HER2 (ErbB2), sequence (P04626 23-1255): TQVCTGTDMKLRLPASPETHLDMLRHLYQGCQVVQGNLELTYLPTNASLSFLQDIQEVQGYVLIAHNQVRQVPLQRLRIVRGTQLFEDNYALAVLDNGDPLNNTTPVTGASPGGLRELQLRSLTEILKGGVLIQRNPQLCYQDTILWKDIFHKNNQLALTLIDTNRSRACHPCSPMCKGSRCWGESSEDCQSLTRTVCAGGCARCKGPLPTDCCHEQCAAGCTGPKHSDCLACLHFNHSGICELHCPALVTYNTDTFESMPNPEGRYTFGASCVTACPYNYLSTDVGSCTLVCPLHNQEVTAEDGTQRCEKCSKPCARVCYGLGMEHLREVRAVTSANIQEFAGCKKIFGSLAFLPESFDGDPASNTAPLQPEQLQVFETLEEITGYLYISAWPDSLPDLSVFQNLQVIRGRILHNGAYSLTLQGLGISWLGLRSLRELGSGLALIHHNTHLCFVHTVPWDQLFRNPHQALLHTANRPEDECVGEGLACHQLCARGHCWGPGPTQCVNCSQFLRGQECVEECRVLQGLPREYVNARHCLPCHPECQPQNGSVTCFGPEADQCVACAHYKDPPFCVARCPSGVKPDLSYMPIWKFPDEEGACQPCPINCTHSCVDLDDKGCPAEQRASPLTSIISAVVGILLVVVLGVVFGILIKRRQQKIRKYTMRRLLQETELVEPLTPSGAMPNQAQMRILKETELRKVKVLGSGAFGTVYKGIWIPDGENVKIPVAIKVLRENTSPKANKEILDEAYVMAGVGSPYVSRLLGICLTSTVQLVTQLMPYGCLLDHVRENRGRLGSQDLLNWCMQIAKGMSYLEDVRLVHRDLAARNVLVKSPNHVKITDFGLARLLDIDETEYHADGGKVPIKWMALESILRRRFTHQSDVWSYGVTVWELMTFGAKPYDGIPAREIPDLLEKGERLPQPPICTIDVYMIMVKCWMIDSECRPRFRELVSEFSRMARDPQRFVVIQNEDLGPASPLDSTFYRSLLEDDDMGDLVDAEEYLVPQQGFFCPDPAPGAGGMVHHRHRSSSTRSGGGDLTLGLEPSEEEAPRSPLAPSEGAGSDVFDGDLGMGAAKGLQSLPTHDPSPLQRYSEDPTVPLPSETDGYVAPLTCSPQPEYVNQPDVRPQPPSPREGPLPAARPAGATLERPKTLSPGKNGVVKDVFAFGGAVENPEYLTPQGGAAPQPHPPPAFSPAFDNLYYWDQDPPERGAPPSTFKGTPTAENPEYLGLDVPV

`C=CC(=O)N1[C@@H]2CC[C@H]1C[C@H](Oc1cc3c(Nc4ccc(Cl)c(Cl)c4F)ncnc3cc1OC)C2` [Example 8] gave an IC50 (HER2 (ErbB2)) of 5.5 nM, an IC50 (HER4 (ErbB4)) of 3.5 nM and an IC50 (OE19 cells) of 0.48 nM.
In the case of `C=CC(=O)N1[C@@H]2CC[C@H]1C[C@H](Nc1cc3c(Nc4ccc(Cl)c(Cl)c4F)ncnc3cc1OC)C2` [Example 38], the IC50 (CYP2C9) is reported as 16 µM, the “activity on CYP2C9, times better than that of the reference compound” value (CYP2C9; versus Poziotinib) is reported as 2 times and the “Tumor volume (mm3) (Day 21)” value [1] is reported as 55 ± 13 mm3. For the same molecule, the “T/C (%)” value [1] was 5.82%, the “TGI (%)” value [1] was 106.65% and the IC50 (HER2 (ErbB2)) was 5 nM. For the same molecule, the IC50 (HER4 (ErbB4)) was 3 nM, the IC50 (OE19 cells) was 1.2 nM and the IC50 (CYP2C19) was 11 µM. For the same molecule, the “inhibition of CYP enzyme CYP2C19” value (CYP2C19) was “comparable to that of the reference compound Poziotinib”, the IC50 (CYP3A4) was > 50 µM and the “inhibition of CYP enzyme CYP3A4” value (CYP3A4) was “no inhibitory activity”.
`C=CC(=O)N1CCC(Oc2cc3c(Nc4ccc(Cl)c(Cl)c4F)ncnc3cc2OC)CC1` [Poziotinib, reference compound] was tested, and the IC50 (CYP2C9) was 8 µM, the “Tumor volume (mm3) (Day 21)” value [1] was 57 ± 7 mm3 and the “T/C (%)” value [1] was 6.05%. The “TGI (%)” value [1] was 106.65%, the IC50 (CYP2C19) was 12 µM and the IC50 (CYP3A4) was > 50 µM. The “inhibition of CYP enzyme CYP3A4” value (CYP3A4) was “no inhibitory activity”.
